Measured values from patent US11266686B2, “Metal complexes and methods of treatment” (PROCYPRA THERAPEUTICS LLC, priority 2013, dated 2022).

What was measured:
[1] = Cu-63 in brain and plasma of treated MPTP-lesioned mice by ICPMS
Protocol: (§1) CuATSM:gluconic acid (1:2) was prepared according to the method of EXAMPLE 7. CuATSM:saccharin (1:2) was prepared according to the methods of EXAMPLE 3. CuATSM was suspended in “Standard Suspension Vehicle” (SSV), consisting of 0.9% (w/v) NaCl, 0.5% (w/v) sodium carboxymethylcellulose, 0.5% (v/v) benzyl alcohol, and 0.4% (v/v) Tween 80 in deionized water. CuATSM:gluconic acid (1:2) and CuATSM:saccharin (1:2) were suspended in sterile water. Samples were prepared by adding one of the compounds to the liquid vehicle (water or SSV) in a vial and then vortexing the mixture for 3 min with a stir bar inside.
(§2) MPTP mouse models of PD are described by (Przedborski & Vila, 2003). […] Behavioral testing via the wire test and tissue harvesting followed.
Copper uptake in brain and in plasma was measured by inductively-coupled plasma mass spectrometry (ICPMS) determination of the naturally-occurring copper isotope Cu-63. Brain tissue was obtained from the left hemisphere of the brain.

MPTP lesioned mice = test: Stool frequency in MPTP lesioned mice; format: in vivo, C57BL/6 mice; settings: versus vehicle or untreated
Text: Several rodent models of Parkinson's Disease have shown gastrointestinal dysfunction, which has been correlated with the loss of neuronal subpopulations within the enteric nervous system. Intraperitoneal administration of MPTP (1-methyl-4-phenyl-1,2,3,6-tetrahydropyridine) caused a significant reduction in the number of dopaminergic neurons within the substantia nigra pars compacta of C57BL/6 mice. A reduction in neuronal subpopulations within the myenteric plexus of the ileum 21 days after lesioning was also detected and was concomitant with a reduction in stool frequency, indicative of digestive dysfunction.
Patients with neurological diseases, such as Parkinson's Diseases experiencing gastrointestinal disfunction such as constipation, may be associated with the loss of neuronal populations in conjunction with enteric glial cell reactivity within the myenteric plexus of the gastrointestinal tract. Treatment of these patients with metal complexes, such as CuATSM, that are neuroprotective in the central nervous system provides symptom release and also results in disease modifying in the gastrointestinal tract.
MPTP lesioned mice may be treated with the NCD of CuATSM, and the results are compared with untreated mice.

MPTP-lesioned mice [2] = test: Traction wire test in MPTP-lesioned mouse model of PD; format: in vivo; settings: for average pull-up time as compared to SSV control: 30 mg/kg API oral for 21 days, gluconic acid NCD p=0.07; for Pull-up Time: 30 mg/kg CuATSM API equivalent, oral gavage for 21 days, average
Text: Traction wire test: Mice are moved to behavior room-testing room 1 hr before test administration. Water and food remain accessible to the mice, and a background “white noise” from a radio is used throughout the hour and test period. Each mouse is pick up the mouse by the tail in one hand, and the mouse held by the tail over the wire until it grasps the wire with the front two paws. The tail is then lowered until the mouse is suspended from the wire by its front two paws. The timing is started as soon as the mouse is suspended independently, with no assistance from the test administrator. The time taken for the mouse to grasp the wire with one of the back feet, such that two front paws and one back paw are grasping the wire, is recorded as the “pull-up time”. The test is repeated for each mouse, three times in a row with a 5 minute inter-trial interval between each suspension on the wire. Mice are returned to their shared cages between trials. If a mouse falls it counts as a trial, and the time until the fall is recorded, and the inter-trial time interval is begun. If the mouse has not completed the task and has not fallen within 60 seconds, then the mouse is taken off the wire and the trial time recorded as 60 seconds. A total of 47 mice were administered MPTP. Of these, a total of 14 mice were then treated with SSV negative control. A total of 14 mice were treated with CuATSM in SSV, of which one mouse was eliminated from the wire pull-up study because of an injured paw. […] Trials in which the mouse fell during the trial were not included in the averages. […] In all instances the mice completed the other two trials successfully so that an average time was calculated for the individual mouse and subsequently for the population.

MPTP-lesioned mice [3] = test: Neutral Red positive cell count in substantia nigra of MPTP-lesioned mice; format: in vivo, mouse; settings: 30 mg/kg API oral for 21 days
Protocol: as §1, §2
Neuroprotective effects of the CuATSM and NCDs were determined by cell count.
Following the wire pull-up time tests, the mice were anesthetized, blood samples were then obtained for plasma studies, and the mice were then sacrificed by an overdose of anesthetic. Mice were then immediately perfused with cold PBS. The right hemisphere of the brain was placed in 5 ml of chilled 4% wt/vol paraformaldehyde (Sigma-Aldrich) in 0.1 M phosphate buffer overnight at 4° C. and pH 7.4. The brains were then removed and left at 4° C. overnight in 30% wt/vol sucrose (domestic grade) in PBS before being frozen and sectioned on a cryostat. Brains were cut coronally into 30-μm sections in a 1:3 series for the substantia nigra pars compacta (SNpc).
The resulting sections were stained with Neutral Red (Niss1 stain; Sigma-Aldrich). Just prior to immunostaining, the frozen sections are fixed again for 5 min in order to ensure that the brain sections are properly fixed to the glass slide. SNpc nuclei from both normal and lesioned animals were examined. […]
The total number of neurons in the substania nigra was estimated using fractionator sampling (Finkelstein et al., 2000; Stanic et al., 2003; West & Gundersen, 1990). […] The entire SNpc was sampled at every third section and analyzed in a series having a random offset for each brain. […]

[4] = MPTP-lesioned mice, 30 mg/kg API oral for 21 days
[5] = MPTP-lesioned mice, 30 mg/kg API oral for 21 days, ICPMS

Compound	Cu-63 in brain, Average ([1]; mouse, in vivo, po, 30 mg/kg)	Cu-63 in plasma, Average ([1]; mouse, in vivo, po, 30 mg/kg)	stool frequency (MPTP lesioned mice)	average pull-up time as compared to SSV control (MPTP-lesioned mice [2])	Pull-up Time (MPTP-lesioned mice [2])	neurons in the substania nigra as compared to SSV control (MPTP-lesioned mice [3])	Cu-63 concentrations in brain tissue as compared to the SSV control [1, 4]	Cu-63 concentrations in plasma as compared to the SSV control [1, 4]	Cu-63 in brain, Average [1, 5]	Cu-63 in plasma, Average [1, 5]
CNC1=NN=C(C)C(C)=NN=C(NC)[S][Cu][S]1 [CuATSM, Copper(II) diacetyl-di(N4-methyl)thiosemicarbazone, reference compound]	18.48 µg/g	5.40 μmol/ltr	improved stool frequency	significant (both p<0.01 or less) decrease	4.22 s	significant (all p<0.01 or less) recovery of the neurons				
CNC1=NN=C(C)C(C)=NN=C(NC)[S][Cu][S]1.O=C1NS(=O)(=O)c2ccccc21.O=C1NS(=O)(=O)c2ccccc21 [CuATSM:saccharin (1:2)]				significant (both p<0.01 or less) decrease	3.11 s	significant (all p<0.01 or less) recovery of the neurons	significant (all p<0.001) increase	No treatments resulted in significant (all p>0.05) change	14.66 µg/g	6.13 μmol/ltr
CNC1=NN=C(C)C(C)=NN=C(NC)[S][Cu][S]1.O=C(O)C(O)C(O)C(O)C(O)CO.O=C(O)C(O)C(O)C(O)C(O)CO [CuATSM:gluconic acid (1:2)]				decrease in the average pull-up time	4.62 s	significant (all p<0.01 or less) recovery of the neurons	significant (all p<0.001) increase	No treatments resulted in significant (all p>0.05) change	22.20 µg/g	5.27 μmol/ltr
